Experimental data: patent US12012584B2 (priority 2017, dated 2024)

Tests used:
[1] = after 8 hours incubation at 4° C., FIG. 22

SMILES	trapping of the molecule by PEEK	amount of nicotine remaining in a PEEK plate (8 h)	amount of nicotine remaining in a PDMS plate [1]
CN(CCCC(=O)c1cccnc1)N=O [NNK, 4-(methylnitrosamino)-1-(3-pyridyl)-1-butanone]	not trapped by the material	–	–
CN1CCCC1c1cccnc1 (stereo not shown) [nicotine]	not trapped by the material	about 100%	about 35%
